In patent US12195427B2, “MASP-2 inhibitors and methods of use” (priority 2018, dated 2025):

Biological target: MASP-2 CCP2-SP (Homo sapiens (Human), UniProt O00187)
Assay: MASP-2 co-crystallization, X-ray crystallography and structure analysis (H-bonds, van der Waals contacts);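 as to Ligand-pharmacophore element distance, pharmacophore element C2: distance from averaged pharmacophore element to bound ligand; missing value means element absent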;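 as to Ligand-pharmacophore element distance, pharmacophore element C3: distance from averaged pharmacophore element to bound ligand; missing value means element absent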;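 as to Ligand-pharmacophore element distance, pharmacophore element C4: distance from averaged pharmacophore element to bound ligand; missing value means element absent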;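 as to Ligand-pharmacophore element distance, pharmacophore element C5: distance from averaged pharmacophore element to bound ligand; missing value means element absent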
Design: van der Waals contact distance, MASP-2 HIS 483 atom CD2 / van der Waals contact distance, MASP-2 HIS 483 atom NE2 / van der Waals contact distance, SER 654 C to compound atom / van der Waals contact distance, SER 654 O to compound atom / van der Waals contact distance, TRP 655 C to compound atom / van der Waals contact distance, MASP-2 GLY 528 atom CA / van der Waals contact distance TRP 655 atom CZ3 / van der Waals contact distance TRP 655 atom N / van der Waals contact distance TRP 655 atom CE3 / van der Waals contact distance GLY 656 atom C / van der Waals contact distance GLY 656 atom CA / van der Waals contact distance GLY 656 atom O / van der Waals contact distance, MASP-2 TYR 607 atom CD1 / van der Waals contact distance, MASP-2 PRO 606 atom O / d(C3,CA1) / d(CA1,N1)2 / d(H4,O1) / d(H4,O2) / d(O1,O2) / d(CA1,O2) / d(CA6,O1) / d(CA6,O2) / d(CA1,C5) / d(O2,H3) / d(N2,C2) / d(CA5,N2) / d(N2,C4) / d(N2,C6) / d(N2,CA3) / d(N2,O3) / d(O4,H2): unit not given beside the values
Details: for Pharmacophore protein distance to MET_658 (first MET_658 column): 6th residue column; for Pharmacophore protein distance to MET_658 (second MET_658 column): 9th residue column; for H-bond distance to MASP-2 SER 657 atom O: SER 657 O
Description: This example illustrates the preparation of recombinant MASP-2 protein, based on UniProt O00187, human mannan-binding lectin serine protease 2. Expression constructs for human MASP-2 CCP2-SP and CCP2-SP-6HIS were generated for recombinant expression in E. coli cells.
Typically, crystallization hits were obtained by screening against […] 96-well crystallization reagent kits (GRAS6, GRAS2, Hampton Research; MORPHEUS, Molecular Dimensions; Wizard 1&2 Cryo, Rigaku Reagents) and crystal growth was inspected by optical microscopy. Crystals were used directly or further optimized for X-ray diffraction. Crystals were captured with cryogenic loops and dipped into liquid nitrogen directly or cryoprotected with a 20% glycerol in crystallization formulation before flash-cooling in liquid nitrogen.
Thereafter crystals are transferred once or twice for soaking within the crystallization solution containing the MASP-2 inhibitor.
Crystals were diffracted with synchrotron X-rays of […] and X-ray diffraction datasets were collected at beamlines SSRL BL9-2, BL14-1, BL12-2 as well as ALS sector 5 using Dectris Pilatus and Eiger detectors. Structures were determined by molecular replacement using portions of the structure 1Q3X as search models and partially refined with Buster 2.10.2 or Refmac 5.8. […] When multiple ligand poses were observed, for instance arising from multiple molecules in the asymmetric unit or refined dual poses within the same molecule, only one pose was selected and analyzed.
LigPlot+ calls these ‘nonbonded contacts’ or ‘hydrophobic contacts’. Despite the name, there are atom pairings that include possible H-bonds. Thus, in some instances, the Table A2 also contains H-bond interactions.

[1] = Table A5-1 pharmacophore: distance between elements, S2/S1 region
[2] = Table A5-2 pharmacophore distance, S3/S4 region
[3] = Table A7-1, between pharmacophore elements of the bound compound
[4] = Table A7-2, between pharmacophore elements of the bound compound
[5] = Table A8-6, nearest protein atom in cell to the left

MASP-2 CCP2-SP, sequence (O00187 445-686): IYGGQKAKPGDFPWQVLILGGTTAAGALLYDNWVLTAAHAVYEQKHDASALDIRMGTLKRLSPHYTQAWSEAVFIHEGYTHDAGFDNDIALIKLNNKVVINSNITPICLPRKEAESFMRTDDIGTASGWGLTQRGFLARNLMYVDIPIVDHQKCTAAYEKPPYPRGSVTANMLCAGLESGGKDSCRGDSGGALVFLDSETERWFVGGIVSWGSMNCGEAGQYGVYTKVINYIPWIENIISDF
MASP-2 CCP2-SP, sequence (O00187 364-432 partner): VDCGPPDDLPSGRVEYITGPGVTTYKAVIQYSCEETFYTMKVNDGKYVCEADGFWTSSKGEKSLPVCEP

CC(NC(=O)C(CCc1ccccc1)NCc1ccc(C(=O)N2CCOCC2)cc1)C(=O)NCc1ccc(C(=N)N)cc1.Cl.Cl (stereo not drawn) [1153_A]
Ligand-pharmacophore element distance, pharmacophore element C2 (Table A4-1): 8.69 | Ligand-pharmacophore element distance, pharmacophore element C3 (Table A4-1): 0 | Ligand-pharmacophore element distance, pharmacophore element C4 (Table A4-1): 0 | Ligand-pharmacophore element distance, pharmacophore element C5 (Table A4-1): 0 | Ligand-pharmacophore element distance, pharmacophore element C6 (Table A4-1): 0 | Ligand-pharmacophore element distance, pharmacophore element C7 (Table A4-1): 0 | Ligand-pharmacophore element distance, pharmacophore element CA1 (Table A4-1): 0.43 | Ligand-pharmacophore element distance, pharmacophore element CA2 (Table A4-1): 0.34 | Ligand-pharmacophore element distance, pharmacophore element CA3 (Table A4-1): 4.19 | Ligand-pharmacophore element distance, pharmacophore element CA4 (Table A4-1): 0 | Ligand-pharmacophore element distance, pharmacophore element CA5 (Table A4-1, element CA5): 0 | Ligand-pharmacophore element distance, pharmacophore element CA6 (Table A4-1): 0 | d(CA1,N1) [1]: 3.54 | d(CA1,O1) [1]: 5.79 | d(CA1,O2) [1]: 4.38 | d(H4,O1) [1]: 6.25 | d(H4,O2) [1]: 4.36 | d(O1,O2) [1]: 4.62 | d(N2,C2) [2]: 8.34 | d(N2,CA2) [2]: 6.18 | d(N2,CA3) [2]: 3.78 | d(N2,O3) [2]: 7.78 | d(O2,H3) [2]: 2.71 | d(O2,N2) [2]: 2.88 | a(CA1, O1, O2) (Table A6-1 pharmacophore angle): 99.83 | a(O1, O2, H4) (Table A6-1 pharmacophore angle): 132.39 | A(N1, CA1, O1) a) (Table A6-1 pharmacophore angle, all compounds with protonatable center N1 except Methyl-amino-pyridine): 174.13 | a(O1, O2, H3) (Table A6-2 pharmacophore angle): 138.79 | a(O1, O2, N2) (Table A6-2 pharmacophore angle): 132.96 | a(O2, N2, C2) (Table A6-2 pharmacophore angle): 168.69 | a(O2, N2, CA2) (Table A6-2 pharmacophore angle): 152.46 | a(O2, N2, CA3) (Table A6-2 pharmacophore angle): 157.4 | a(O2, N2, O3) (Table A6-2 pharmacophore angle): 167.7 | Pharmacophore torsion angle a(H4, O1, O2, H3) [3]: 86.11 | Pharmacophore torsion angle a(H4, O1, O2, N2) [3]: 97.90 | Pharmacophore torsion angle a(N1, CA1, O2, H4) [3]: −11.60 | Pharmacophore torsion angle a(O1, H4, O2, CA1) [3]: 15.20 | Pharmacophore torsion angle a(O1, O2, N2, C2) [3]: 30.40 | Pharmacophore torsion angle a(O1, O2, N2, CA2) [4]: 116.41 | Pharmacophore torsion angle a(O1, O2, N2, CA3) [4]: 24.87 | Pharmacophore torsion angle a(O1, O2, N2, O3) [4]: 43.95 | Pharmacophore protein distance to MET_658 (first MET_658 column) [5]: 2.53 | Pharmacophore protein distance to MET_658 (second MET_658 column) [5]: 3.26 | Pharmacophore protein distance to GLY_528 [5]: 3.41 | Pharmacophore protein distance to PHE_529 [5]: 3.23 | Pharmacophore protein distance to PRO_608 [5]: 4.41 | Pharmacophore protein distance to SER_611 [5]: 2.46 | Pharmacophore protein distance to TRP_655 (Table A8-6, pharmacophore elements C6, CA3, O3, H1, nearest protein atom in cell to the left): 3.42

C[C@H](NC(=O)[C@H](N)CCCc1ccccc1)C(=O)NCc1ccc(C(=N)N)cc1 [compound 1042]
H-bond distance to MASP-2 ASP 627 atom OD1 (Table A1 (H-Bonds), ASP 627 OD1): 3.32 | H-bond distance to MASP-2 GLY 656 atom O (Table A1 (H-Bonds), GLY 656 O): 2.34 | H-bond distance to MASP-2 SER 628 atom O (Table A1 (H-Bonds), SER 628 O): 2.74 | H-bond distance to MASP-2 SER 657 atom O (Table A1 (H-Bonds)): 2.65 | van der Waals contact distance, MASP-2 HIS 483 atom NE2 (Table A2-1): 3.56 | van der Waals contact distance, MASP-2 PHE 529 atom CZ (Table A2-3): 3.57 | van der Waals contact distance, SER 654 C to compound atom (Table A2-11): 3.36 | van der Waals contact distance, TRP 655 C to compound atom (Table A2-12): 3.57

C[C@H](NC(=O)[C@H]1C[C@@H](c2ccccc2)CN1)C(=O)NCc1ccc(C(=N)N)cc1 [compound 1037]
H-bond distance to MASP-2 ASP 627 atom OD2 (Table A1 (H-Bonds), ASP 627 OD2): 2.91 | H-bond distance to MASP-2 GLY 656 atom N (Table A1 (H-Bonds), GLY 656 N): 3.35 | H-bond distance to MASP-2 SER 657 atom O (Table A1 (H-Bonds)): 2.85 | van der Waals contact distance, MASP-2 PHE 529 atom CE1 (Table A2-3): 3.27 | van der Waals contact distance, MASP-2 PHE 529 atom CE2 (Table A2-3): 3.73 | van der Waals contact distance, MASP-2 PRO 606 atom C (Table A2-4): 3.89 | van der Waals contact distance, MASP-2 PRO 606 atom O (Table A2-4): 3.73 | van der Waals contact distance GLY 656 atom C (Table A2-13, MASP-2 GLY 656 C): 3.7 | van der Waals contact distance TRP 655 atom O (Table A2-13, MASP-2 TRP 655 O): 3.25 | van der Waals contact distance GLY 656 atom N (Table A2-14, MASP-2 GLY 656 N): 3.86 | van der Waals contact distance SER 657 atom C (Table A2-14, MASP-2 SER 657 C, columns c12-c13 (inferred)): 3.73 | Ligand-pharmacophore element distance, pharmacophore element C2 (Table A4-1): 0 | Ligand-pharmacophore element distance, pharmacophore element C3 (Table A4-1): 0 | Ligand-pharmacophore element distance, pharmacophore element C4 (Table A4-1): 0 | Ligand-pharmacophore element distance, pharmacophore element C5 (Table A4-1): 0 | Ligand-pharmacophore element distance, pharmacophore element C6 (Table A4-1): 0 | Ligand-pharmacophore element distance, pharmacophore element C7 (Table A4-1): 0 | Ligand-pharmacophore element distance, pharmacophore element CA1 (Table A4-1): 0.27 | Ligand-pharmacophore element distance, pharmacophore element CA2 (Table A4-1): 0 | Ligand-pharmacophore element distance, pharmacophore element CA3 (Table A4-1): 0 | Ligand-pharmacophore element distance, pharmacophore element CA4 (Table A4-1): 0 | Ligand-pharmacophore element distance, pharmacophore element CA6 (Table A4-1): 0 | d(O2,H3) [2]: 3.99 | Pharmacophore torsion angle a(H4, O1, O2, H3) [3]: 57.29 | Pharmacophore torsion angle a(N1, CA1, O2, H4) [3]: −92.49 | Pharmacophore protein distance to MET_658 (first MET_658 column) [5]: 2.38 | Pharmacophore protein distance to MET_658 (second MET_658 column) [5]: 3.03 | Pharmacophore protein distance to SER_611 [5]: 2.19
